pIC50: −log10 of the molar value. In brackets after ≈: the same amount, converted by molar mass.
Legend:
acid ceramidase (hACR) = target: T1, acid ceramidase (hACR) (Homo sapiens, UniProt Q13510); experiment: Acid ceramidase inhibition, biochemical fluorescent assay with cell lysates overexpressing acid ceramidase (substrate Rbm14-12); details: cell lysate, 1 hr preincubation at RT, pH 4.5, Rbm14-12 6.3 μM; read-out: IC50 hACR
T1 construct: expressed in transfected cells
T1 sequence (Q13510 22-395): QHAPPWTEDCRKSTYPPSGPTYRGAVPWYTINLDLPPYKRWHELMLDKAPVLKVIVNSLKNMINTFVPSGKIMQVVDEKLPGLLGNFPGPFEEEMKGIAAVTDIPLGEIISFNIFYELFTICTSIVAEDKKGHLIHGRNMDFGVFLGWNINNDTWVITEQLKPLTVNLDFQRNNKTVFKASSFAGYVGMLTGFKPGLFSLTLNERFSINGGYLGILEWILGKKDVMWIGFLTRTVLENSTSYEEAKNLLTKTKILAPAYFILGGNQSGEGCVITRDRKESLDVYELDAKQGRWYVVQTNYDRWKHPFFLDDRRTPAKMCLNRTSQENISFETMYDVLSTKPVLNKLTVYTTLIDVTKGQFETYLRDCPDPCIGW
Outline: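 Enzyme source was lysate from cells overexpressing acid ceramidase, 10 µg protein per reaction. Compounds were preincubated 1 h at RT in 25 mM NaAc, 100 mM NaCl, pH 4.5.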

[1] = Compound solubility in water; format: physicochemical

Compound	pIC50 (acid ceramidase (hACR))	solubility [1] [µg/mL]
COc1nccn1C(=O)NCCCc1ccccc1 [Example 124, 2-methoxy-N-(3-phenylpropyl)-1H-imidazole-1-carboxamide]	> 6.70	20 (≈ 77.1 µM)
COc1nc(C2CC2)cn1C(=O)NC1CC1 [Example 125, N,4-Dicyclopropyl-2-methoxy-1H-imidazole-1-carboxamide]	< 6.00	14 (≈ 63.3 µM)
COc1nc(C2CCCC2)cn1C(=O)NC1CC1 [Example 126, 4-Cyclopentyl-N-cyclopropyl-2-methoxy-1H-imidazole-1-carboxamide]	6.00 to 6.70	13 (≈ 52.1 µM)
COc1nc(C2CCOC2)cn1C(=O)NC1CC1 (stereo not drawn) [Example 128, N-Cyclopropyl-2-methoxy-4-(tetrahydrofuran-3-yl)-1H-imidazole-1-carboxamide]	< 6.00	15 (≈ 59.7 µM)
CCC1(NC(=O)n2cc(C(C)(C)C)nc2OC)CC1 [Example 129, 4-(tert-Butyl)-N-(1-ethylcyclopropyl)-2-methoxy-1H-imidazole-1-carboxamide]	< 6.00	16 (≈ 60.3 µM)
COc1nc(C2CC2)cn1C(=O)NCCc1ccccc1 [Example 130, 4-Cyclopropyl-2-methoxy-N-phenethyl-1H-imidazole-1-carboxamide]	6.00 to 6.70	12 (≈ 42.1 µM)
CSc1nccn1C(=O)NCCC(C)C [Example 132, N-iso-Pentyl-2-(methylthio)-1H-imidazole-1-carboxamide]	> 6.70	10 (≈ 44 µM)
COc1nc(C(C)(C)C)cn1C(=O)NCCCCn1ccc(C(C)(C)C)n1 [Example 134, 4-(tert-Butyl)-N-(4-(3-(tert-butyl)-1H-pyrazol-1-yl)butyl)-2-methoxy-1H-imidazole-1-carboxamide]	> 6.70	18 (≈ 47.9 µM)
COc1nccn1C(=O)NCCc1ccccc1 [Example 135, 2-Methoxy-N-phenethyl-1H-imidazole-1-carboxamide]	> 6.70	26 (≈ 106 µM)
COc1nccn1C(=O)NCCCCc1ccccc1 [Example 136, 2-Methoxy-N-(4-phenylbutyl)-1H-imidazole-1-carboxamide]	> 6.70	22 (≈ 80.5 µM)
COc1nc(-c2ccccc2)cn1C(=O)NC1CC1 [Example 140, N-Cyclopropyl-2-methoxy-4-phenyl-1H-imidazole-1-carboxamide]	< 6.00	27 (≈ 105 µM)
Cc1cn(C(=O)NCCC(C)C)c(Oc2ccccc2)n1 [Example 146, N-iso-Pentyl-4-methyl-2-phenoxy-1H-imidazole-1-carboxamide]	> 6.70	19 (≈ 66.1 µM)
Cc1cn(C(=O)NC2CC2)c(Oc2ccccc2)n1 [Example 147, N-Cyclopropyl-4-methyl-2-phenoxy-1H-imidazole-1-carboxamide]	> 6.70	29 (≈ 113 µM)
Cc1cn(C(=O)NCCc2ccccc2)c(OC(C)C)n1 [Example 149, 2-iso-Propoxy-4-methyl-N-phenethyl-1H-imidazole-1-carboxamide]	> 6.70	21 (≈ 73.1 µM)
Cc1cnc(OC(C)C)n1C(=O)NCCc1ccccc1 [Example 150, 2-iso-Propoxy-5-methyl-N-phenethyl-1H-imidazole-1-carboxamide]	> 6.70	5 (≈ 17.4 µM)
COc1nc(-c2ccccc2)cn1C(=O)NC1CCC(F)(F)CC1 [Example 157, N-(4,4-Difluorocyclohexyl)-2-methoxy-4-phenyl-1H-imidazole-1-carboxamide]	6.00 to 6.70	1 (≈ 2.98 µM)

Next, values leading:

pIC50 (acid ceramidase (hACR))	solubility [1] [µg/mL]	Compound
< 6.00	23 (≈ 91.5 µM)	COc1nc(C2CC2)cn1C(=O)NCCC(C)C [Example 127, 4-Cyclopropyl-N-iso-pentyl-2-methoxy-1H-imidazole-1-carboxamide]
6.00 to 6.70	23 (≈ 74.8 µM)	COc1nc(C2CCOC2)cn1C(=O)NCCCCC1CC1 (stereo not drawn) [Example 131, N-(4-Cyclopropylbutyl)-2-methoxy-4-(tetrahydrofuran-3-yl)-1H-imidazole-1-carboxamide]
> 6.70	29 (≈ 99.6 µM)	COc1nccn1C(=O)NCCCC1(C(F)(F)F)CC1 [Example 137, 2-Methoxy-N-(3-(1-(trifluoromethyl)cyclopropyl)propyl)-1H-imidazole-1-carboxamide]
> 6.70	27 (≈ 88.4 µM)	COc1nccn1C(=O)NCCCCC1(C(F)(F)F)CC1 [Example 138, 2-Methoxy-N-(4-(1-(trifluoromethyl)cyclopropyl)butyl)-1H-imidazole-1-carboxamide]
6.00 to 6.70	32 (≈ 121 µM)	COc1nc(C)cn1C(=O)NCCCC(F)(F)F [Example 139, 2-Methoxy-4-methyl-N-(4,4,4-trifluorobutyl)-1H-imidazole-1-carboxamide]
> 6.70	24 (≈ 87.8 µM)	COc1nc(C)cn1C(=O)NCCCc1ccccc1 [Example 141, 2-Methoxy-4-methyl-N-(3-phenylpropyl)-1H-imidazole-1-carboxamide]
6.00 to 6.70	22 (≈ 91.9 µM)	COc1nc(C)cn1C(=O)NCCCC(C)C [Example 142, 2-Methoxy-4-methyl-N-(4-methylpentyl)-1H-imidazole-1-carboxamide]
> 6.70	27 (≈ 104 µM)	COc1nc(C)cn1C(=O)NCCc1ccccc1 [Example 143, 2-Methoxy-4-methyl-N-phenethyl-1H-imidazole-1-carboxamide]
> 6.70	26 (≈ 89.9 µM)	COc1nc(C)cn1C(=O)NCCCOc1ccccc1 [Example 144, 2-Methoxy-4-methyl-N-(3-phenoxypropyl)-1H-imidazole-1-carboxamide]
> 6.70	28 (≈ 91.7 µM)	COc1nc(C)cn1C(=O)NCCCC1(C(F)(F)F)CC1 [Example 145, 2-Methoxy-4-methyl-N-(3-(1-(trifluoromethyl)cyclopropyl)propyl)-1H-imidazole-1-carboxamide]
6.00 to 6.70	23 (≈ 118 µM)	COc1nc(C)cn1C(=O)NC1CC1 [Example 148, N-Cyclopropyl-2-methoxy-4-methyl-1H-imidazole-1-carboxamide]
6.00 to 6.70	30 (≈ 107 µM)	COc1nc(C)cn1C(=O)NCCCOC(F)(F)F [Example 151, 2-Methoxy-4-methyl-N-(3-(trifluoromethoxy)-propyl)-1H-imidazole-1-carboxamide]
< 6.00	30 (≈ 110 µM)	COc1nc(C)cn1C(=O)NC1CCC(F)(F)CC1 [Example 152, N-(4,4-difluorocyclohexyl)-2-methoxy-4-methyl-1H-imidazole-1-carboxamide]
< 6.00	29 (≈ 106 µM)	COc1nc(C)cn1C(=O)NC1CCCC(F)(F)C1 (stereo not drawn) [Example 153, N-(3,3-difluorocyclohexyl)-2-methoxy-4-methyl-1H-imidazole-1-carboxamide]
6.00 to 6.70	30 (≈ 104 µM)	COc1nc(C)cn1C(=O)NCCC1CCC(F)(F)C1 (stereo not drawn) [Example 154, N-(2-(3,3-Difluorocyclopentyl)ethyl)-2-methoxy-4-methyl-1H-imidazole-1-carboxamide]
> 6.70	22 (≈ 68.9 µM)	COc1nc(C)cn1C(=O)NCCCCC1(C(F)(F)F)CC1 [Example 155, 2-Methoxy-4-methyl-N-(4-(1-(trifluoromethyl)-cyclopropyl)butyl)-1H-imidazole-1-carboxamide]
> 6.70	23 (≈ 80 µM)	COc1nc(C)cn1C(=O)NCCCCc1ccccc1 [Example 156, 2-Methoxy-4-methyl-N-(4-phenylbutyl)-1H-imidazole-1-carboxamide]
